Source: publication PMC7419559 (Scientific Reports, 2020)
Read-outs that look alike come from different tables or passages of the source.

Tests used:
[1] = target: T1, rat isoform of H3R (rH3R) (Rattus norvegicus, UniProt Q9QYN8); assay: CRE-Luc reporter gene Schild assay at rH3R in HEK-293T cells; type: cell-based
T1 construct: expressed in transfected cells; host or cells: HEK-293T
Protocol: The mixture was incubated for 5 h under culture conditions. […] Lysed homogenate was transferred into white microplates. […] For experiments employing radiolabeled ligands, raw data that were measured as counts-per-minute [c.p.m.] were reduced by non-specific binding. […] Data were stated as means ± s.d. […] Data were stated as means ± s.d. with the indicated number of replicates.

[2] = target: T2, G9a (Homo sapiens, UniProt Q96KQ7); assay: AlphaLISA based G9a methyltransferase inhibition screening (H3K9 dimethylation); type: biochemical
T2 construct: purchased Sigma-Aldrich
T2 sequence (Q96KQ7 1-1210): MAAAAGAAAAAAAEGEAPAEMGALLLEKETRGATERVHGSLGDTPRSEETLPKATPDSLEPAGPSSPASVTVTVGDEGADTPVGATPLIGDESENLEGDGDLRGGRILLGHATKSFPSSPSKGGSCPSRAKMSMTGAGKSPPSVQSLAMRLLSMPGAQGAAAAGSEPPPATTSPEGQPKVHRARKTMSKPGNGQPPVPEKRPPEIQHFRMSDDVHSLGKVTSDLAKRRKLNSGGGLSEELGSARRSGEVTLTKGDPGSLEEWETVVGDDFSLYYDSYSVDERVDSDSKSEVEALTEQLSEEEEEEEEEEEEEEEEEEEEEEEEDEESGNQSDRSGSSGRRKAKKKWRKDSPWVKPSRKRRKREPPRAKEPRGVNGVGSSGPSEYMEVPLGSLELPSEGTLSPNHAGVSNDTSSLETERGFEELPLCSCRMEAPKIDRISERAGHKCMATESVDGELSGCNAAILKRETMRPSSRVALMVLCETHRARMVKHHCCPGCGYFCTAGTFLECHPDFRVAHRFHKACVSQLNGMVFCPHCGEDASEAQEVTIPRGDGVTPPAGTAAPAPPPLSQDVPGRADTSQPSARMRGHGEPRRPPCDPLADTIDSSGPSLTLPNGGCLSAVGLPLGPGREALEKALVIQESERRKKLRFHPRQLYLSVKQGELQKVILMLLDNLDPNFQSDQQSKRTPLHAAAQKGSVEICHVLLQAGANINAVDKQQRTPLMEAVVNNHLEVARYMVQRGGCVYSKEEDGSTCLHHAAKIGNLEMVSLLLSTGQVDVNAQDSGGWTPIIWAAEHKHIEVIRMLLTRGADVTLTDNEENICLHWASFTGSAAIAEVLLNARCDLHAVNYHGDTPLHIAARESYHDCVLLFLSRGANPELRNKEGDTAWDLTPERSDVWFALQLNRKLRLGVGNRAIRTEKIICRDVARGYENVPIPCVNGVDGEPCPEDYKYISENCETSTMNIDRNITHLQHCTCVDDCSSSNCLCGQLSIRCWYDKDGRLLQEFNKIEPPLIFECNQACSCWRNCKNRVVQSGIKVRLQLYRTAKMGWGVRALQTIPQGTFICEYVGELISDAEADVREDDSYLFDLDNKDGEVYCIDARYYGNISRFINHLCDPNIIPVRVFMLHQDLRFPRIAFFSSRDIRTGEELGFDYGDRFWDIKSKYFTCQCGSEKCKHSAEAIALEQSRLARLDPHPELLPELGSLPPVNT
Protocol: Inhibition of G9a was examined in an AlphaLISA based format with protocols provided by PerkinElmer. In brief, compounds were incubated for 30 min on white 384-well microplates at the indicated concentration and with 5 nM G9a (Supplementary Information, Figure S1), 100 nM histone H3 (1–21) fragment and 15 µM SAM in assay buffer (50 mM Tris–HCl (pH = 9.0); 50 mM NaCl, 1 mM dithiothreitol, 0.01% Tween-20). Incubation was terminated by addition of anti-H3K9me2 acceptor beads in provided detection buffer. After incubating the mixture for 60 min, streptavidin-coated donor beads were added to the mix for additional 30 min. Luminescence was then measured using the AlphaLISA luminescence filter of an Infinite M1000pro multiplate reader (Tecan, Maennedorf, Switzerland) for 1,000 ms (integration time).
For experiments employing radiolabeled ligands, raw data that were measured as counts-per-minute [c.p.m.] were reduced by non-specific binding. For affinity measurements, such results were fitted to least-squares method “One site competition” of GraphPad Prism version 7.0 (La Jolla, CA, United States) and final values were calculated as means [95% confidence interval]. […] Data were stated as means ± s.d. […] Data were stated as means ± s.d. with the indicated number of replicates. For CRE-Luc assays, data were normalized to luminescence derived by forskolin containing samples (= 100%) and minimum luminescence measured in samples containing forskolin + N^α-methylhistamine (10 µM) (= 0%). Data from both experiments were globally fit to the “Gaddum/Schild EC50 shift” model of GraphPad Prism and were stated as means [95% confidence interval].

[3] = target: T3, human isoform of histamine H3 receptor (hH3R) (Homo sapiens, UniProt Q9Y5N1); assay: [3H]Nα-methylhistamine displacement at hH3R, membranes of transfected HEK-293T cells; type: binding
T3 construct: expressed in transfected cells; host or cells: HEK-293T
Protocol: NM_007232.3) was determined in radioligand displacement studies at membrane preparations of transfected HEK-293 T cells. […] The workflow to terminate incubation and measurement of bound radioligand was identical for both experimental set-ups. Briefly, samples were filtrated from microplates onto GF/B filters presoaked with 0.3% polyethyleneimine solution using a 96-well cell harvester. Filter mats were washed three times with water at 4 °C, dried for 60 min (54 °C), soaked with scintillation liquid (Betaplate Scint, PerkinElmer), sealed and subjected to scintillation counting. For experiments employing radiolabeled ligands, raw data that were measured as counts-per-minute [c.p.m.] were reduced by non-specific binding. For affinity measurements, such results were fitted to least-squares method “One site competition” of GraphPad Prism version 7.0 (La Jolla, CA, United States) and final values were calculated as means [95% confidence interval]. […] Data were stated as means ± s.d. […] Data were stated as means ± s.d. with the indicated number of replicates. […] Data from both experiments were globally fit to the “Gaddum/Schild EC50 shift” model of GraphPad Prism and were stated as means [95% confidence interval].

[4] = target: Spindlin1 (Homo sapiens, UniProt Q9Y657); assay: Spindlin1 inhibition, fluorescence polarization displacement assay; type: binding; conditions: for Spindlin1 inhibition: fluorescence polarization-based screening
Protocol: Spindlin1 inhibition was determined using the fluorescence polarization displacement assay described by Wagner et al.[37] For the IC50 values, 12 concentrations were measured in triplicates.

Chain of Spindlin1 (Q9Y657 whole entry, species assumed): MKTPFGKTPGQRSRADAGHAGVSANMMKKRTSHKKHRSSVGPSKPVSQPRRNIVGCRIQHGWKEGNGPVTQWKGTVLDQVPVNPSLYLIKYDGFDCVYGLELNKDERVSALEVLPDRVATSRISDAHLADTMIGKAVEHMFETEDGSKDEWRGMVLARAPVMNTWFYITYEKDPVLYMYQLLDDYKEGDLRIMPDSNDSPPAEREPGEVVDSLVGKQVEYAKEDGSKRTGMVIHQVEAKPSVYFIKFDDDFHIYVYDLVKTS
T1 sequence (Q9QYN8 whole entry, canonical isoform): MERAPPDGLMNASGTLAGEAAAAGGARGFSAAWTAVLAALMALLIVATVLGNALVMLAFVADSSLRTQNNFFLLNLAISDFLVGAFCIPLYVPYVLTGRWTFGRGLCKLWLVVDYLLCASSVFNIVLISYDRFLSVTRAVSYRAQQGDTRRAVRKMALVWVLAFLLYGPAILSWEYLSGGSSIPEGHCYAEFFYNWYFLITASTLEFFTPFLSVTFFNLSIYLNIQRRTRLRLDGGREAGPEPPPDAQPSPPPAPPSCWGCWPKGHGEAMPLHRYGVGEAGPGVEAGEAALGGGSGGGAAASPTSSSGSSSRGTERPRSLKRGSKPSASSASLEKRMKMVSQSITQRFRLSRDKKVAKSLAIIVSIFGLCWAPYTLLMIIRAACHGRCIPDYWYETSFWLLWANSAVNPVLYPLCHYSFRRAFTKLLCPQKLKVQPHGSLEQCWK
T3 sequence (Q9Y5N1 whole entry, canonical isoform): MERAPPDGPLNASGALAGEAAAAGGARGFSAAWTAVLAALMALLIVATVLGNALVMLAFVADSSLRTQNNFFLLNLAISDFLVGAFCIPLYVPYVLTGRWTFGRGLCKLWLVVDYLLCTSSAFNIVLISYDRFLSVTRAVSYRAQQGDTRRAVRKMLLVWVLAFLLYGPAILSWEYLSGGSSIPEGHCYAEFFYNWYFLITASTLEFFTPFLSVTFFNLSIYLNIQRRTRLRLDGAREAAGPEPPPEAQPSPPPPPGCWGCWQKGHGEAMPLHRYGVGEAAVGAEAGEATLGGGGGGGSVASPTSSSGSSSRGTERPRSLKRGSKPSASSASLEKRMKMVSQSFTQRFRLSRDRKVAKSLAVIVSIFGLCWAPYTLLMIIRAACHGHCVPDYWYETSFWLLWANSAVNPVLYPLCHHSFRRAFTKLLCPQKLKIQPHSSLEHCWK

| Compound | Spindlin1 inhibition [4] | inhibition at 10 µM [2] [%] | further results |
| --- | --- | --- | --- |
| COc1cc2c(cc1OCCCN1CCCC1)N=C(N)C21CCC1 [A-366] | – | 100 ± 0.04 | Kb [1]: 15 nM; Schild-plot slope ([1]; rH3R, mean ± 95% confidence interval, not significantly different from unity): 0.79 ± 0.45; Ki ([3]; [3H]Nα-methylhistamine 2 nM, 90 min, mean [95% CI], read-out: hH3R affinity Ki [CI95%]): 17 nM |
| COc1cc2c(NC3CCN(C(C)C)CC3)nc(N3CCC(F)(F)CC3)nc2cc1OCCCN1CCCC1 [UNC-0642] | – | 99.9 ± 0.09 | IC50 ([4]; fluorescence polarization, 12 concentrations in triplicates): 2700 nM; Ki [3]: 1.8 nM |

Further lines, with some results ahead:

| Spindlin1 inhibition [4] | Compound | inhibition at 10 µM [2] [%] | further results |
| --- | --- | --- | --- |
| No inhibition | O=C(c1ccc(OCCCN2CCCCC2)cc1)C1CC1 [UCL-2190] | 13.9 ± 9.3 | – |
| No inhibition | O=C(c1ccc(OCCCc2cnc[nH]2)cc1)C1CC1 [Ciproxifan] | – | – |
| No inhibition | Clc1ccc(CCCOCCCN2CCCCC2)cc1 [Pitolisant] | – | – |
